This note sets out measurements from patent publication US8501713B2, “Drug combinations for the treatment of duchenne muscular dystrophy” (Summit Corporation PLC, priority 2007, dated 2013).

One experiment deals with Utrophin A promoter linked to a luciferase reporter gene. Description: Luciferase reporter assay (murine H2K cells). In kind it is cell-based. As to conditions: Mus musculus, H2K mdx, luciferase level relative to control; H2K/mdx/Utro A reporter cells; compound 10 μM final concentration; read-out: Activity. A digest of the protocol: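 Immortalized mdx mouse H2K myoblasts stably carrying a ~5 kb utrophin A promoter–luciferase construct, kept at 33° C, 10% CO2. After 24 hrs plating, compound added at 10 μM final for 48 hrs; luciferase light output read after in-situ lysis.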
For `O=C(Nc1ccc2oc(-c3ccccc3)nc2c1)c1ccc(-c2ccccc2)cc1` [Example 32, N-(2-phenylbenzo[d]oxazol-5-yl)biphenyl-4-carboxamide], the activity at 10 µM is less than 200%.
The same measure, in the same setting: for `O=C(C=Cc1ccccc1)Nc1ccc2oc(-c3cccnc3)nc2c1` [Example 52, N-(2-(pyridin-3-yl)benzo[d]oxazol-5-yl)cinnamamide] the value was less than 200%.
For the compound `COc1ccc(C(=O)Nc2ccc3oc(-c4ccc(Cl)cc4)nc3c2)cc1` [Example 91, N-(2-(4-chlorophenyl)benzo[d]oxazol-5-yl)-4-methoxybenzamide], the activity at 10 µM is less than 200%.
Same read-out and setting: for `COc1ccc(C(=O)Nc2ccc3oc(-c4ccc(OC)cc4)nc3c2)cc1` [Example 83, 4-methoxy-N-(2-(4-methoxyphenyl)benzo[d]oxazol-5-yl)benzamide] the value was less than 200%; for `O=C(Nc1ccc2oc(-c3ccc(Cl)cc3)nc2c1)c1cc(Cl)cc(Cl)c1` [Example 95, 3,5-dichloro-N-(2-(4-chlorophenyl)benzo[d]oxazol-5-yl)benzamide], less than 200%; for `CC(C)C(=O)Nc1ccc2oc(C(C)c3ccccc3)nc2c1` (centres unmarked) [Example 309, N-(2-(1-phenylethyl)benzo[d]oxazol-5-yl)isobutyramide], less than 200%.
Still for that read-out and setting: for `CCCS(=O)(=O)Nc1ccc2oc(-c3ccccc3)nc2c1` [Example 193, N-(2-phenylbenzo[d]oxazol-5-yl)propane-1-sulfonamide] the value was 201 to 300%; for `CCCC(=O)Nc1ccc2[nH]c(-c3ccc(C)cc3)nc2c1` [Example 166, N-(2-p-tolyl-1H-benzo[d]imidazol-5-yl)butyramide], less than 200%; for `O=C(Nc1ccc2oc(-c3ccc(C(F)(F)F)cc3)nc2c1)c1ccco1` [Example 128, N-(2-(4-(trifluoromethyl)phenyl)benzo[d]oxazol-5-yl)furan-2-carboxamide], less than 200%.
Consider `CCS(=O)(=O)c1ccc2oc(-c3ccccc3Cl)nc2c1` [Example 298, 2-(2-Chlorophenyl)-5-(ethylsulfonyl)benzo[d]oxazole], for which the activity at 10 µM is 201 to 300%.
For the compound `Cc1ccc(-c2nc3c(N)cccc3o2)cc1` [Example 234, 2-p-tolylbenzo[d]oxazol-4-amine], the activity at 10 µM lay in the range of 301 to 400%.
In the case of `Cc1cc(NC(=O)c2ccc(F)cc2F)c(OC(=O)c2ccc(F)cc2F)cc1C` [Example 238, 2-(2,4-difluorobenzamido)-4,5-dimethylphenyl 2,4-difluorobenzoate], the activity at 10 µM is less than 200%.
Regarding `CC(C)C(=O)Nc1ccc2oc(-c3cccnc3)nc2c1` [Example 56, N-(2-(pyridin-3-yl)benzo[d]oxazol-5-yl)isobutyramide], the activity at 10 µM fell in the range of 201 to 300%.
With `O=C(Nc1ccc2oc(-c3ccc(Cl)c(Cl)c3)nc2c1)C1CC1` [Example 351, N-(2-(3,4-dichlorophenyl)benzo[d]oxazol-5-yl)cyclopropanecarboxamide], the activity at 10 µM was greater than 401%.
For `CC(C)C(=O)Nc1ccc2nc(-c3ccc(Cl)c(Cl)c3)oc2c1` [Example 370, N-(2-(3,4-dichlorophenyl)benzo[d]oxazol-6-yl)isobutyramide], the activity at 10 µM was greater than 401%.
Still for that read-out and setting: for `Nc1ccc2oc(-c3ccc(N4CCCC4)cc3)nc2c1` [Example 149, 2-(4-(pyrrolidin-1-yl)phenyl)benzo[d]oxazol-5-amine] the value was 201 to 300%.
Same read-out and setting: next, `CCS(=O)(=O)c1ccc2oc(-c3ccc4c(c3)CCCC4)nc2c1` [Example 444, 5-(ethylsulfonyl)-2-(5,6,7,8-tetrahydronaphthalen-2-yl)benzo[d]oxazole]: 301 to 400%; `CCCCNc1ccc2oc(-c3ccc(C)cc3)nc2c1` [Example 185, N-butyl-2-p-tolylbenzo[d]oxazol-5-amine]: 301 to 400%; `Cc1ccc(-c2nc3cc(NCc4ccccc4)ccc3o2)cc1` [Example 187, N-benzyl-2-p-tolylbenzo[d]oxazol-5-amine]: 301 to 400%.
Turning to `CC(C)C(=O)Nc1ccc2oc(CCc3ccccc3)nc2c1` [Example 302, N-(2-phenethylbenzo[d]oxazol-5-yl)isobutyramide], the activity at 10 µM is less than 200%.
With `CSc1ccc2nc(-c3ccc(Cl)cc3)sc2c1` [Example 399, 2-(4-chlorophenyl)-6-(methylthio)benzo[d]thiazole], the activity at 10 µM lay within 301 to 400%.
On the same count and under the same terms, for `CCCS(=O)(=O)Nc1ccc2oc(-c3ccc(Cl)cc3)nc2c1` [Example 260, N-(2-(4-chlorophenyl)benzo[d]oxazol-5-yl)propane-1-sulfonamide] the value was less than 200%; for `CCCc1ccc(-c2nc3cc(C(=O)O)ccc3o2)cc1` [Example 108, 2-(4-propylphenyl)benzo[d]oxazole-5-carboxylic acid], less than 200%; for `Nc1ccc2oc(CCc3ccccc3)nc2c1` [Example 280, 2-phenethylbenzo[d]oxazol-5-amine], greater than 401%.
On the same count and under the same terms, for `CCCC(=O)Nc1ccc2oc(-c3ccccc3Cl)nc2c1` [Example 229, N-(2-(2-chlorophenyl)benzo[d]oxazol-5-yl)butyramide] the value was 301 to 400%.
Regarding `Cc1ccc(-c2nc3cc(N)ccc3s2)cc1` [Example 213, 2-p-tolylbenzo[d]thiazol-5-amine], the activity at 10 µM was less than 200%.
On to `CCCCC(=O)Nc1ccc2oc(-c3ccc(C)cc3)nc2c1` [Example 117, N-(2-p-tolylbenzo[d]oxazol-5-yl)pentanamide], for which the activity at 10 µM was 301 to 400%.
Same read-out and setting: next, `Nc1ccc(-c2nc3cc(Cl)c(Cl)cc3o2)cc1` [Example 440, 4-(5,6-dichlorobenzo[d]oxazol-2-yl)aniline]: greater than 401%; `CCCCC(=O)Nc1ccc2oc(-c3ccccc3)nc2c1` [Example 11, N-(2-phenylbenzo[d]oxazol-5-yl)pentanamide]: 201 to 300%.
The same measure, in the same setting: for `O=C(Cc1ccccc1)Nc1ccc2oc(-c3cccnc3)nc2c1` [Example 50, 2-phenyl-N-(2-(pyridin-3-yl)benzo[d]oxazol-5-yl)acetamide] the value was less than 200%; for `CC(C)C(=O)Nc1ccc2oc(-c3cccc(C(F)(F)F)c3Cl)nc2c1` [Example 368, N-(2-(2-chloro-3-(trifluoromethyl)phenyl)benzo[d]oxazol-5-yl)isobutyramide], less than 200%.
Turning to `CCCCNC(=O)c1ccc2oc(-c3ccc(C)cc3)nc2c1` [Example 176, N-butyl-2-p-tolylbenzo[d]oxazole-5-carboxamide], the activity at 10 µM lay within 201 to 300%.
On the same count and under the same terms, for `CCN(CC)c1ccc(-c2nc3cc(NC(=O)c4ccccc4)ccc3o2)cc1` [Example 62, N-(2-(4-(diethylamino)phenyl)benzo[d]oxazol-5-yl)benzamide] the value was less than 200%; for `CCN(CC)c1ccc(-c2nc3cc(NC(=O)c4ccc(N(C)C)cc4)ccc3o2)cc1` [Example 67, N-(2-(4-(diethylamino)phenyl)benzo[d]oxazol-5-yl)-4-(dimethylamino)benzamide], 201 to 300%; for `CCCC(=O)Nc1ccc2oc(C3CCCCC3)nc2c1` [Example 249, N-(2-cyclohexylbenzo[d]oxazol-5-yl)butyramide], less than 200%.
Consider `CC(C)C(=O)Nc1ccc2oc(-c3ccc(F)cc3Cl)nc2c1` [Example 340, N-(2-(2-chloro-4-fluorophenyl)benzo[d]oxazol-5-yl)isobutyramide], for which the activity at 10 µM was greater than 401%.
On the same count and under the same terms, next, `O=C(C=Cc1ccccc1)Nc1ccc2oc(-c3ccccc3)nc2c1` [Example 34, N-(2-phenylbenzo[d]oxazol-5-yl)cinnamamide]: less than 200%.
Same read-out and setting: for `CCN(CC)c1ccc(-c2nc3ccc(Cl)cc3o2)cc1` [Example 132, 4-(6-chlorobenzo[d]oxazol-2-yl)-N,N-diethylaniline] the value was greater than 401%.

The experiment is the same for the next values; noted with them: luciferase reporter assay in murine H2K cells; classified relative to control.
In the case of `COc1ccc(-c2nc3cc([N+](=O)[O-])ccc3[nH]2)cc1` [Example 586], the Activity result was “++ (Between 201% and 300% relative to control)”.
With `Cc1ccc2oc(-c3ccc([N+](=O)[O-])cc3)nc2c1` [Example 505], the Activity entry is “++ (Between 201% and 300% relative to control)”.
Same read-out and setting: next, `O=[N+]([O-])c1ccc(-c2nc3ccccc3o2)cc1` [Example 477]: “+ (Up to 200% relative to control)”.
As to `Nc1ccc(-c2nc3ccccc3o2)c(O)c1` [Example 484], the Activity entry is “++ (Between 201% and 300% relative to control)”.
As to `Cc1cc2nc(-c3cc(N)ccc3O)oc2cc1C` [Example 559], the Activity result was “+++ (Between 301% and 400% relative to control)”.
Still for that read-out and setting: for `O=[N+]([O-])c1ccc2[nH]c(-c3ccco3)nc2c1` [Example 508] the value was “+ (Up to 200% relative to control)”.
The same measure, in the same setting: next, `O=C(c1ccccc1)c1ccc2nc(-c3ccccc3)[nH]c2c1` [Example 581]: “+ (Up to 200% relative to control)”; `O=C(Nc1nc2ccccc2s1)c1ccccc1Br` [Example 616]: “++++ (Above 401% relative to control)”; `Cc1ccc(NC(=O)Nc2nc3ccccc3s2)cc1` [Example 637]: “+++ (Between 301% and 400% relative to control)”.
Consider `COc1ccc(-c2nc3ccccc3s2)cc1O` [Example 596], for which the Activity result is listed as “++++ (Above 401% relative to control)”.
As for `CN(C)c1ccc(-c2nc3ccccc3o2)cc1` [Example 486], the Activity entry is listed as “+ (Up to 200% relative to control)”.
For the compound `COc1ccc(C(=O)Nc2ccc(-c3nc4ccccc4[nH]3)cc2)cc1OC` [Example 494], the Activity result was “+ (Up to 200% relative to control)”.
On the same count and under the same terms, next, `O=C(Nc1ccccc1F)C(=O)c1c[nH]c2ccccc12` [Example 689]: “++ (Between 201% and 300% relative to control)”; `Nc1ccc(-c2nc3ccccc3o2)cc1` [Example 478]: “++ (Between 201% and 300% relative to control)”.
On the same count and under the same terms, for `Cc1ccc2[nH]c(-c3ccc(N)cc3)nc2c1` [Example 532] the value was “+ (Up to 200% relative to control)”.
